In patent US9441000B2, “Use of metallocene compounds for cancer treatment” (Chevron Phillips Chemical Company LP, priority 2011, dated 2016) one finds IC50 data, which are given here for four compounds.

Type in all cases: cell-based
The subject of assay [1] is MeWo chemoresistant melanoma cancer cells. The experiment in a line: CellTiter-Blue viability assay, MeWo. To be noted: Homo sapiens, 96 hr treatment, approximately 5,000 MeWo cells. The protocol:
(§1) Examples 18-22 were prepared and tested as follows. Approximately 5,000 A549 cells (University of Texas M.D. Anderson Cancer Center) growing in RPMI 1640 were plated in each 96-well overnight before adding the test compounds for 96 hr of treatment. Final concentrations achieved in the wells were 0, 0.8, 1.6, 3.1, 6.2, 12.5, 25, 50, 100, and 200 μM. All of the test compounds were reconstituted in DMSO just before the treatment. […] After 96 hr, the medium was refreshed. Approximately 10 μL of CellTiter-Blue® (Promega) was added to 100 μL of medium in each well and incubated at 37° C. for >4 hours. The plates were scanned using a SpectraMax M2 model microplate reader to measure the absorbance. CellTiter-Blue contains dark blue resazurin. Viable cells are able to convert non-fluorescent resazurin to its fluorescent product, resorufin. […] Reduction of resazurin to resorufin also involves a shift of the absorbance maximum from 605 nm to 573 nm, so viability can also be estimated using absorbance. Results were normalized to untreated controls to determine the percent reduction in viability. Graphs were generated using GraphPad Prism (GraphPad Software, Inc).
Examples 50-53 were prepared and tested using substantially the same procedure as described in Examples 18-22, except that approximately 5,000 MeWo melanoma cancer cells (University of Texas M.D. Anderson Cancer Center) were used. […]

For assay [2], the system named is Hey-A8 MDR chemoresistant ovarian cancer cells. The experiment in a line: CellTiter-Blue viability assay, Hey-A8 MDR. To be noted: HeyA8-MDR, 96 hr treatment, approximately 5,000 Hey-A8 MDR cells. As to the method: as §1
Examples 38-41 were prepared and tested using substantially the same procedure as described in Examples 18-22, except that approximately 5,000 Hey-A8 MDR ovarian cancer cells (University of Texas M.D. Anderson Cancer Center) were used. […]

Assay [3] relates to T-24 chemoresistant urinary bladder cancer cells. Kind of assay: CellTiter-Blue viability assay, T-24. The note with it: 96 hr treatment, approximately 5,000 T-24 cells. As to the method:
as §1
Examples 46-49 were prepared and tested using substantially the same procedure as described in Examples 18-22, except that approximately 5,000 T-24 urinary bladder cancer cells (American Type Culture Collection) were used. […]

Assay [4] concerns SKOV-3 chemoresistant ovarian cancer cells. The experiment in a line: CellTiter-Blue viability assay, SKOV-3. The note with it: 96 hr treatment, approximately 5,000 SKOV-3 cells. The protocol: as §1
Examples 34-37 were prepared and tested using substantially the same procedure as described in Examples 18-22, except that approximately 5,000 SKOV-3 ovarian cancer cells (American Type Culture Collection) were used. […]

Assay [5] concerns A549 (lung carcinoma) cell line. Kind of assay: Sulforhodamine-B (SRB) microculture colorimetric cytotoxicity assay, A549. To be noted: 96 hr treatment, A549 lung carcinoma cells, read-out: IC50 ± SD, A549. As to the method:
(§2) Drug solutions of CPH-1, CPH-2 and CPH-3 were made in dimethyl sulfoxide (DMSO, Sigma Aldrich) at a concentration of 20 mM, filtered through a Millipore filter, 0.22 μm, before use, and diluted by nutrient medium to various working concentrations. The nutrient medium was RPMI-1640 (PAA Laboratories) supplemented with 10% fetal bovine serum (Biochrom AG) and penicillin/streptomycin (PAA Laboratories). […]
(§3) The cytotoxic activities of CPH-1, CPH-2 and CPH-3 were evaluated using a sulforhodamine-B (SRB, Sigma Aldrich) microculture colorimetric assay, as described in Skehan et al., J. Natl. Cancer I. 82 (1990) 1107-1112, the disclosure of which is incorporated herein by reference in its entirety. […] The percentages of surviving cells relative to untreated controls were determined 96 hr after the beginning of drug exposure. […] After dyeing, the plates were again washed to remove the dye with 1% acetic acid and allowed to air dry overnight, 100 μL of 10 mM Tris base solutions were added to each well of the plate, and absorbance was measured at 570 nm using a 96 well plate reader (Tecan Spectra, Crailsheim, Germany). […]

The test system of assay [6] is A2780 ovarian cancer cells. Kind of assay: CellTiter-Blue viability assay, A2780, approximately 2,000 cells (Examples 23-27). The note with it: 96 hr treatment, approximately 2,000 A2780 cells. The protocol: as §1
Examples 23-27 were prepared and tested using substantially the same procedure as described in Examples 18-22, except that approximately 2,000 A2780 ovarian cancer cells (University of Texas M.D. Anderson Cancer Center) were used. […]

For assay [7], the system named is A2780 (ovarian cancer) cell line. Kind of assay: Sulforhodamine-B (SRB) microculture colorimetric cytotoxicity assay, A2780. To be noted: 96 hr treatment, A2780 ovarian cancer cells, read-out: IC50 ± SD, A2780. The protocol:
as §2, §3

The test system of assay [8] is A549 lung carcinoma cell line. The experiment in a line: CellTiter-Blue viability assay, A549 (Examples 18-22). To be noted: 96 hr treatment, approximately 5,000 A549 cells per well. The protocol:
as §1

Assay [9] concerns A253 (head and neck tumor) cell line. Kind of assay: Sulforhodamine-B (SRB) microculture colorimetric cytotoxicity assay, A253. The note with it: 96 hr treatment, A253 head and neck tumor cells, read-out: IC50 ± SD, A253. As to the method: as §2, §3
Assay [10] concerns NCI-Adr-Res chemoresistant ovarian cancer cells. The experiment in a line: CellTiter-Blue viability assay, NCI-Adr-Res. To be noted: Homo sapiens, 96 hr treatment, approximately 5,000 NCI-Adr-Res cells. The protocol: as §1
Examples 42-45 were prepared and tested using substantially the same procedure as described in Examples 18-22, except that approximately 5,000 NCI-Adr-Res ovarian cancer cells (National Cancer Institute) were used. […]

With `CN(C)/N=N/c1[nH]cnc1C(N)=O` [Dacarbazine, dacarbazine, reference compound], in assay [1], 7.9 µM corresponded to half-maximal inhibition (IC50).

In turn, `CC(=O)O[C@H]1C(=O)[C@@]2(C)[C@H]([C@H](OC(=O)c3ccccc3)[C@]3(O)C[C@H](OC(=O)[C@H](O)[C@@H](NC(=O)c4ccccc4)c4ccccc4)C(C)=C1C3(C)C)[C@]1(OC(C)=O)CO[C@@H]1C[C@@H]2O` [Paclitaxel, paclitaxel, reference compound] yielded an IC50 in assay [2] of 30 nM.

For `N.N.[Cl][Pt][Cl]` [Cisplatin, cisplatin, reference compound], the IC50 in assay [3] was over 200 µM; in [4] it was 12.8 µM; in [5], 1510 ± 20 nM; in assay [6], 35.4 µM; in assay [7], 550 ± 30 nM; in assay [8], 82.7 µM. Also, in assay [9], the IC50 was found to be 810 ± 20 nM.

In [10], `COc1cccc2c1C(=O)c1c(O)c3c(c(O)c1C2=O)C[C@@](O)(C(=O)CO)C[C@@H]3O[C@H]1C[C@H](N)[C@H](O)[C@H](C)O1` [Doxorubicin, doxorubicin, reference compound] returned an IC50 of 14.3 µM.
